The conditions of data set [1]: 298.15 K; 101.33 kPa; Liquid; Vibrating tube method.
Data set [2] in a line: refractive index (Na D-line) (dimensionless). To be noted: 101.33 kPa, Liquid, Standard Abbe refractometry.

Numbers after ± are expanded uncertainties.

For orientation: mass density means mass per unit of volume. One may read the refractive index as the speed of light in vacuum divided by its phase velocity in the sample. As to `CCCC(=O)O` [butanoic acid], in data set [1], the mass density is recorded as 952.7 ± 0.2 kg/m3. Moreover, the refractive index in data set [2] (298.2 K) was found to be 1.3976 ± 0.0008. As for `CCCCCC` [hexane], the mass density in data set [1] is on record as 654.6 ± 0.3 kg/m3. The refractive index in data set [2] (298.15 K) is 1.3751 ± 0.0008. Turning to `CCCCCCO` [hexan-1-ol], the mass density in data set [1] is recorded as 815.2 ± 0.6 kg/m3. The refractive index in data set [2] (298.15 K) is recorded as 1.4155 ± 0.0009. On to `O` [water], for which, in data set [2] (298.15 K), the refractive index came to 1.3325 ± 0.0008.

Source of the values: the NIST ThermoML archive (doi:10.1016/j.jct.2013.01.015).
